Laboratory results published in the supplement of paper PMC11061612.

Key:
[1] = system: NCI-H720 (Other Solid Carcinomas); experiment: Bliss excess, mean over the matrix (fraction); higher = more synergy
How it was run: (§1)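 Cell lines grown in DMEM/F12 or RPMI with 10% FBS were plated in 1536-well plates and held 24 hours at 37°C, 5% CO2 before 72 hours of exposure to two-drug dose matrices, with DMSO typically at 0.2%. CellTiter-Glo 2.0 luminescence gave viability, which was converted to inhibition. Vehicle wells were set to 0 and blank wells to 1. Combination Emax is the second-highest inhibition in the matrix, and Bliss excess is the observed combination effect minus the expected EA + EB − EA·EB, where EA and EB are the single-agent effects.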

[2] = system: NCI-H720 (Other Solid Carcinomas); experiment: combination Emax (second highest fraction inhibited in the dose matrix, 72 h); higher = more inhibition; extreme values may be limits of the assay
How it was run: as §1

[3] = system: OE21 (Esophageal Squamous Cell Carcinoma); experiment: as above
How it was run: as §1

[4] = system: NCI-H1568 (Lung Adenocarcinoma); experiment: as above
How it was run: as §1

LOXIMVI (Melanoma) = experiment: as above
How it was run: as §1

[5] = system: NCI-H524 (Small Cell Lung Carcinoma); experiment: as above
How it was run: as §1

A673 (Ewing's Sarcoma) = experiment: as above
How it was run: as §1

NCI-H2722 (Mesothelioma) = experiment: as above
How it was run: as §1

[6] = system: LS-123 (Colorectal Carcinoma); experiment: as above
How it was run: as §1

[7] = system: OVCAR-5 (Ovarian Carcinoma); experiment: as above
How it was run: as §1

[8] = system: OV-56 (Ovarian Carcinoma); experiment: as above
How it was run: as §1

GAMG (Glioblastoma) = experiment: as above
How it was run: as §1

CHP-134 (Neuroblastoma) [9] = experiment: Bliss excess, mean over the matrix (fraction); higher = more synergy
How it was run: as §1

CHP-134 (Neuroblastoma) [10] = experiment: combination Emax (second highest fraction inhibited in the dose matrix, 72 h); higher = more inhibition; extreme values may be limits of the assay
How it was run: as §1
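For Bliss excess, mean over the matrix in this document: after 72 h of two-drug dosing.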

**Q.** How did the Bliss excess [1] turn out when `COc1cccc(OCCCN)c1-c1cc(Nc2cnc(C#N)cn2)n[nH]1` [Prexasertib] + CCc1c2c(nc3ccc(O)cc13)-c1cc3c(c(=O)n1C2)COC(=O)[C@]3(O)CC [SN-38] (first compound max 1 µM, 7x7, partner max 0.3 µM) was run?
**A.** 0.197

**Q.** What about the “combination Emax” value [2] of the same molecule?
**A.** 0.886

**Q.** And the “combination Emax” value [3]?
**A.** 0.813

**Q.** And the “combination Emax” value [4]?
**A.** 0.848

**Q.** What about the “combination Emax” value (LOXIMVI (Melanoma)) of the same molecule?
**A.** 0.875

**Q.** What about the “combination Emax” value [5] of the same molecule?
**A.** 1

**Q.** And the “combination Emax” value (A673 (Ewing's Sarcoma))?
**A.** 0.998

**Q.** And the “combination Emax” value (NCI-H2722 (Mesothelioma))?
**A.** 0.471

**Q.** And the “combination Emax” value [6]?
**A.** 0.871

**Q.** What about the “combination Emax” value [7] of the same molecule?
**A.** 0.89

**Q.** What about the “combination Emax” value [8] of the same molecule?
**A.** 0.996

**Q.** And the “combination Emax” value (GAMG (Glioblastoma))?
**A.** 0.993

**Q.** What does the source list for `CN(C)CCCOc1ccc(-c2ccc3ncc4c(c3c2)n(C2CCOCC2)c(=O)n4C)cn1` [AZD0156] + O=C(c1cc(Cc2n[nH]c(=O)c3ccccc23)ccc1F)N1CCN(C(=O)C2CC2)CC1 [Olaparib] (first compound max 3 µM, partner max 3 µM)?
**A.** Bliss excess [1]: 0.0622; Bliss excess (CHP-134 (Neuroblastoma) [9]): 0.174; combination Emax [2]: 0.371; combination Emax [3]: 0.283; combination Emax [4]: 0.233; combination Emax (LOXIMVI (Melanoma)): 0.377; combination Emax [5]: 0.496; combination Emax (A673 (Ewing's Sarcoma)): 0.653; combination Emax (NCI-H2722 (Mesothelioma)): 0.181; combination Emax (CHP-134 (Neuroblastoma) [10]): 0.434; combination Emax [6]: 0.37; combination Emax [7]: 0.45; combination Emax [8]: 0.0996; combination Emax (GAMG (Glioblastoma)): 0.336

**Q.** Which results are given for `C=CCn1c(=O)c2cnc(Nc3ccc(N4CCN(C)CC4)cc3)nc2n1-c1cccc(C(C)(C)O)n1` [AZD1775] + C1CN(CCC1(C(=O)N[C@@H](CCO)C2=CC=C(C=C2)Cl)N)C3=NC=NC4=C3C=CN4 [Capivasertib] (first compound max 3 µM, partner max 3 µM)?
**A.** Bliss excess [1]: -0.0252; Bliss excess (CHP-134 (Neuroblastoma) [9]): -0.0416; combination Emax [2]: 0.842; combination Emax [3]: 0.747; combination Emax [4]: 0.765; combination Emax (LOXIMVI (Melanoma)): 0.793; combination Emax [5]: 0.847; combination Emax (A673 (Ewing's Sarcoma)): 0.526; combination Emax (NCI-H2722 (Mesothelioma)): 0.262; combination Emax (CHP-134 (Neuroblastoma) [10]): 0.844; combination Emax [6]: 0.636; combination Emax [7]: 0.572; combination Emax [8]: 0.389; combination Emax (GAMG (Glioblastoma)): 0.829

**Q.** `CCN(CCO)CCCOc1ccc2c(Nc3cc(CC(=O)Nc4cccc(F)c4)[nH]n3)ncnc2c1` [AZD2811] + O=C(c1cc(Cc2n[nH]c(=O)c3ccccc23)ccc1F)N1CCN(C(=O)C2CC2)CC1 [Olaparib] (first compound max 1 µM, 7x7, partner max 10 µM) was tested. Which Bliss excess [1] did it give?
**A.** -0.0312

**Q.** And the “combination Emax” value [2]?
**A.** 0.561

**Q.** And the “combination Emax” value [3]?
**A.** 0.255

**Q.** And the “combination Emax” value [4]?
**A.** 0.164

**Q.** What about the “combination Emax” value (LOXIMVI (Melanoma)) of the same molecule?
**A.** 0.336

**Q.** What about the “combination Emax” value [5] of the same molecule?
**A.** 0.945

**Q.** What about the “combination Emax” value (A673 (Ewing's Sarcoma)) of the same molecule?
**A.** 0.841

**Q.** And the “combination Emax” value (NCI-H2722 (Mesothelioma))?
**A.** 0.204

**Q.** What about the “combination Emax” value [6] of the same molecule?
**A.** 0.301

**Q.** And the “combination Emax” value [7]?
**A.** 0.184

**Q.** And the “combination Emax” value [8]?
**A.** 0.179

**Q.** What about the “combination Emax” value (GAMG (Glioblastoma)) of the same molecule?
**A.** 0.399

**Q.** For `CCN(CCO)CCCOc1ccc2c(Nc3cc(CC(=O)Nc4cccc(F)c4)[nH]n3)ncnc2c1` [AZD2811] + C=CCn1c(=O)c2cnc(Nc3ccc(N4CCN(C)CC4)cc3)nc2n1-c1cccc(C(C)(C)O)n1 [AZD1775] (first compound max 1 µM, partner max 1 µM), which Bliss excess [1] is on record?
**A.** 0.0326

**Q.** And the “combination Emax” value [2]?
**A.** 0.679

**Q.** And the “combination Emax” value [3]?
**A.** 0.468

**Q.** What about the “combination Emax” value [4] of the same molecule?
**A.** 0.429

**Q.** What about the “combination Emax” value (LOXIMVI (Melanoma)) of the same molecule?
**A.** 0.959

**Q.** And the “combination Emax” value [5]?
**A.** 0.976

**Q.** And the “combination Emax” value (A673 (Ewing's Sarcoma))?
**A.** 0.708

**Q.** What about the “combination Emax” value (NCI-H2722 (Mesothelioma)) of the same molecule?
**A.** 0.278

**Q.** And the “combination Emax” value [6]?
**A.** 0.68

**Q.** What about the “combination Emax” value [7] of the same molecule?
**A.** 0.273

**Q.** What about the “combination Emax” value [8] of the same molecule?
**A.** 0.139

**Q.** What about the “combination Emax” value (GAMG (Glioblastoma)) of the same molecule?
**A.** 0.417

**Q.** Which Bliss excess [1] does the source give for `COc1cccc(OCCCN)c1-c1cc(Nc2cnc(C#N)cn2)n[nH]1` [Prexasertib] + CN(C)CCCOc1ccc(-c2ccc3ncc4c(c3c2)n(C2CCOCC2)c(=O)n4C)cn1 [AZD0156] (first compound max 1 µM, 7x7, partner max 1 µM) here?
**A.** 0.0149

**Q.** What about the “combination Emax” value [2] of the same molecule?
**A.** 0.562

**Q.** What about the “combination Emax” value [3] of the same molecule?
**A.** 0.726

**Q.** And the “combination Emax” value [4]?
**A.** 0.538

**Q.** What about the “combination Emax” value (LOXIMVI (Melanoma)) of the same molecule?
**A.** 0.862

**Q.** What about the “combination Emax” value [5] of the same molecule?
**A.** 0.97

**Q.** What about the “combination Emax” value (A673 (Ewing's Sarcoma)) of the same molecule?
**A.** 0.905

**Q.** And the “combination Emax” value (NCI-H2722 (Mesothelioma))?
**A.** 0.193

**Q.** And the “combination Emax” value [6]?
**A.** 0.752

**Q.** What about the “combination Emax” value [7] of the same molecule?
**A.** 0.838

**Q.** And the “combination Emax” value [8]?
**A.** 0.895

**Q.** What about the “combination Emax” value (GAMG (Glioblastoma)) of the same molecule?
**A.** 0.843
